Laboratory results from the NIST ThermoML archive (doi:10.1016/j.jct.2016.01.002).

Assay: xn = mol fraction of the nth substance listed
Conditions: 100 kPa, Liquid; for electrical conductivity: Direct current cell with electrodes; for mass density: Vibrating tube method

[Cl][Fe]([Cl])[Cl] [ferric chloride] + CCCCn1cc[n+](C)c1.[Cl-]
Conditions	electrical conductivity [S/m]	mass density [kg/m3]
318.15 K, x1 = 0.3704	–	1260.6
318.15 K, x1 = 0.4	–	1279.6
318.15 K, x1 = 0.4348	–	1302.4
318.15 K, x1 = 0.4545	–	1316.7
318.15 K, x1 = 0.4762	1.233	1331.6
318.15 K, x1 = 0.5	1.535	1349
318.15 K, x1 = 0.5238	1.44	1370.4
318.15 K, x1 = 0.5652	1.325	1411.2
318.15 K, x1 = 0.6	1.26	1445.3
323.15 K, x1 = 0.3704	0.483	1256.7
323.15 K, x1 = 0.4	0.666	1275.7
323.15 K, x1 = 0.4348	0.961	1298.5
323.15 K, x1 = 0.4545	1.15	1312.6
323.15 K, x1 = 0.4762	1.4	1327.5
323.15 K, x1 = 0.5	1.726	1344.7
323.15 K, x1 = 0.5238	1.623	1366.2
323.15 K, x1 = 0.5652	1.5	1406.7
323.15 K, x1 = 0.6	1.423	1440.7
328.15 K, x1 = 0.3704	0.581	1253
328.15 K, x1 = 0.4	0.783	1271.8
328.15 K, x1 = 0.4348	1.108	1294.6
328.15 K, x1 = 0.4545	1.311	1308.7
328.15 K, x1 = 0.4762	1.58	1323.3
328.15 K, x1 = 0.5	1.929	1340.7
328.15 K, x1 = 0.5238	1.812	1361.9
328.15 K, x1 = 0.5652	1.67	1402.4
328.15 K, x1 = 0.6	1.59	1436.3
333.15 K, x1 = 0.3704	0.691	1249.2
333.15 K, x1 = 0.4	0.913	1267.8
333.15 K, x1 = 0.4348	1.27	1290.7
333.15 K, x1 = 0.4545	1.48	1304.6
333.15 K, x1 = 0.4762	1.76	1319.5
333.15 K, x1 = 0.5	2.14	1336.5
333.15 K, x1 = 0.5238	2.014	1357.7
333.15 K, x1 = 0.5652	1.85	1398
333.15 K, x1 = 0.6	1.76	1431.8
338.15 K, x1 = 0.3704	0.814	1245.5
338.15 K, x1 = 0.4	1.05	1263.9
338.15 K, x1 = 0.4348	1.436	1286.8
338.15 K, x1 = 0.4545	1.66	1300.6
338.15 K, x1 = 0.4762	1.96	1315.5
338.15 K, x1 = 0.5	2.35	1332.3
338.15 K, x1 = 0.5238	2.219	1353.2
338.15 K, x1 = 0.5652	2.042	1393.7
338.15 K, x1 = 0.6	1.936	1427.3
343.15 K, x1 = 0.3704	0.949	1241
343.15 K, x1 = 0.4	1.208	1260.3
343.15 K, x1 = 0.4348	1.614	1282.6
343.15 K, x1 = 0.4545	1.85	1296.7
343.15 K, x1 = 0.4762	2.16	1311.3
343.15 K, x1 = 0.5	2.58	1328.3
343.15 K, x1 = 0.5238	2.435	1349.2
343.15 K, x1 = 0.5652	2.24	1389.3
343.15 K, x1 = 0.6	2.12	1422.9
